Test results from PMC3044726, “Identification of Human IKK-2 Inhibitors of Natural Origin (Part I): Modeling of the IKK-2 Kinase Domain, Virtual Screening and Activity Assays” (PLoS ONE, 2011).
Read-outs that look alike come from different tables or passages of the source.

Biological target: T1, hIKK-2 (Homo sapiens, UniProt O14920)
T1 construct: gene IKBKB
T1 sequence (O14920 1-756): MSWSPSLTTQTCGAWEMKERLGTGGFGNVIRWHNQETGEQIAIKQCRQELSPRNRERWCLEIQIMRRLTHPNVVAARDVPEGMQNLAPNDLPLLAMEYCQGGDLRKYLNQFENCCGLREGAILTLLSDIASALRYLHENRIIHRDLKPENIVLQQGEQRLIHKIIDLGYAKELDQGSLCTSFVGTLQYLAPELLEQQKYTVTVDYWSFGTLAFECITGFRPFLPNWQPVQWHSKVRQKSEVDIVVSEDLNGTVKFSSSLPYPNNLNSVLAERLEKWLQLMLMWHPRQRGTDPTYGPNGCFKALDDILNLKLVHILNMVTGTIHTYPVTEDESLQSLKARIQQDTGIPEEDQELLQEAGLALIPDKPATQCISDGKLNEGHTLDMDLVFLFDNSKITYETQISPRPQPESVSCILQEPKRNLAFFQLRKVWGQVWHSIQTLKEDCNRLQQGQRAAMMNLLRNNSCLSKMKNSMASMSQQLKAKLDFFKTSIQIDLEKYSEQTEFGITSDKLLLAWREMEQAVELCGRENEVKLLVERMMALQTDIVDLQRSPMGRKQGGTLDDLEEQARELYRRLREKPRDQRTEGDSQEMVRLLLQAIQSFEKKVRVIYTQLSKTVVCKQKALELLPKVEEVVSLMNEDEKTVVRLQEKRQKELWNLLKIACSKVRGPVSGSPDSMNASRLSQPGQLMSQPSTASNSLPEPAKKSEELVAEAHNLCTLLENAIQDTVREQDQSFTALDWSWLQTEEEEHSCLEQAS
Experiment: K-LISA IKKβ ELISA kinase assay with GST-IκBα substrate
Type: biochemical

Compound	IC50 (read-out: IC50) [µM]	IC50 [µM]
OC[C@@H]1CCCN2CCCC[C@H]12 [ZINC01669260, lupinine]	3320	–
COCc1c(CN)cnc(C)c1N [ZINC03683886]	–	2070
CCOc1ccc2nc3cc(N)ccc3c(N)c2c1 [ZINC03871389, ethacridine]	184	–
